Measurements reported in patent publication US20170327598A1, “SINGLE DOMAIN ANTIBODIES DIRECTED AGAINST INTRACELLULAR ANTIGENS” (SINGH MOLECULAR MEDICINE, LLC, priority 2014, published 2017).
“And” between values parts separate entries of the source, which are not always exact repeats. Identical values can stand only once. Like-named read-outs stand apart in the source and are kept apart here.

What was measured:
[1] = tested on: MCF-7 human breast tumor xenograft; settings: for Tumor Volume TV (mm^3), group Mean / Tumor caliper measurement W (mm), individual animal / Tumor Volume TV (mm^3), individual animal / Tumor caliper measurement L (mm), individual animal: 1 mg/kg ip tid × 14
[2] = tested on: VEGF-A production in ARPE-19 cells; assay: VEGF-A ELISA in ARPE-19 retinal cells, Experiment 2;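 on all read-outs here: confluent ARPE-19 cells in 96-well plates, VEGF-A in culture supernatant quantified by ELISA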; type: cell-based, human; settings: for pg VEGF-A per mL: based on collecting 0.1 ml of supernatant; for Mean (pg VEGF-A per mL): mean of Adj. Result, Wells 1-3; for Mean (pg VEGF-A per μg protein): mean of Wells 1-3; for Mean (pg VEGF-A per μg protein) / % Control: Experiment 2; for % Control: normalized for protein; for Mean Result (pg VEGF-A per mL) / pg VEGF-A per μg protein / Adj. Result (pg VEGF-A per mL): per well; for Adj. Result (pg VEGF-A per mL): adjusted for dilution; for Result (pg VEGF-A per mL): single reads
[3] = 1 mg/kg ip tid × 14 first Day 2 doses

## Anti-STAT3 VHH13: anti-STAT3 single domain antibody, SEQ ID NO:3; bacterially produced form referred to as SBT-100
[1]; [3]
  % TGD: 42%
  Median TTE: 32.9
  T-C: 9.7
[1]; Day 1
  Tumor Volume TV (mm^3), group Mean: 117 mm^3
  Tumor caliper measurement W (mm), individual animal: 6 mm
[1]; Day 1, 1 mg/kg
  Tumor Volume TV (mm^3), individual animal: 108 mm^3 (2×) and 126 mm^3 (2×)
  Tumor caliper measurement L (mm), individual animal: 6 mm (2×) and 7 mm (2×)
[1]; Day 4
  Tumor Volume TV (mm^3), group Mean: 155.3 mm^3
[1]; Day 4, 1 mg/kg
  Tumor Volume TV (mm^3), individual animal: 196 mm^3 and 126 mm^3 and 144 mm^3
  Tumor caliper measurement L (mm), individual animal: 8 mm (2×) and 7 mm
  Tumor caliper measurement W (mm), individual animal: 7 mm and 6 mm (2×)
[1]; Day 8
  Tumor Volume TV (mm^3), group Mean: 253.7 mm^3
[1]; Day 8, 1 mg/kg
  Tumor Volume TV (mm^3), individual animal: 320 mm^3 and 196 mm^3 and 245 mm^3
  Tumor caliper measurement L (mm), individual animal: 8 mm
  Tumor caliper measurement W (mm), individual animal: 7 mm
[1]; Day 11
  Tumor Volume TV (mm^3), group Mean: 307 mm^3
[1]; Day 11, 1 mg/kg
  Tumor Volume TV (mm^3), individual animal: 405 mm^3 and 196 mm^3 and 320 mm^3
  Tumor caliper measurement L (mm), individual animal: 8 mm
  Tumor caliper measurement W (mm), individual animal: 9 mm and 7 mm
[1]; Day 15
  Tumor Volume TV (mm^3), group Mean: 346.5 mm^3
[1]; Day 15, 1 mg/kg
  Tumor Volume TV (mm^3), individual animal: 405 mm^3 and 288 mm^3
  Tumor caliper measurement L (mm), individual animal: 9 mm
  Tumor caliper measurement W (mm), individual animal: 9 mm
[1]; Day 18
  Tumor Volume TV (mm^3), group Mean: 346.5 mm^3
[1]; Day 18, 1 mg/kg
  Tumor Volume TV (mm^3), individual animal: 405 mm^3 and 288 mm^3
  Tumor caliper measurement L (mm), individual animal: 9 mm
  Tumor caliper measurement W (mm), individual animal: 9 mm
[1]; Day 22
  Tumor Volume TV (mm^3), group Mean: 477.5 mm^3
[1]; Day 22, 1 mg/kg
  Tumor Volume TV (mm^3), individual animal: 550 mm^3 and 405 mm^3
  Tumor caliper measurement L (mm), individual animal: 11 mm
  Tumor caliper measurement W (mm), individual animal: 9 mm
[1]; Day 25
  Tumor Volume TV (mm^3), group Mean: 634.5 mm^3
[1]; Day 25, 1 mg/kg
  Tumor Volume TV (mm^3), individual animal: 864 mm^3 and 405 mm^3
  Tumor caliper measurement L (mm), individual animal: 12 mm
  Tumor caliper measurement W (mm), individual animal: 12 mm and 9 mm
[1]; Day 29
  Tumor Volume TV (mm^3), group Mean: 799.3 mm^3
[1]; Day 29, 1 mg/kg
  Tumor Volume TV (mm^3), individual animal: 1099 mm^3 and 500 mm^3
  Tumor caliper measurement L (mm), individual animal: 13 mm
  Tumor caliper measurement W (mm), individual animal: 13 mm
[1]; Day 32
  Tumor Volume TV (mm^3), group Mean: 500 mm^3
  Tumor Volume TV (mm^3), individual animal: 500 mm^3
[1]; Day 36
  Tumor Volume TV (mm^3), group Mean: 864 mm^3
  Tumor Volume TV (mm^3), individual animal: 864 mm^3
  Tumor caliper measurement L (mm), individual animal: 12 mm
  Tumor caliper measurement W (mm), individual animal: 12 mm
[1]; Day 39
  Tumor Volume TV (mm^3), group Mean: 1098.5 mm^3
  Tumor Volume TV (mm^3), individual animal: 1099 mm^3
  Tumor caliper measurement L (mm), individual animal: 13 mm
  Tumor caliper measurement W (mm), individual animal: 13 mm
[2]; 0.1 μg/well, 12 Hr
  % Negative Control: 123.8%
  pg VEGF-A per mL: 18.6 pg VEGF-A per mL and 14.3 pg VEGF-A per mL and 15 pg VEGF-A per mL
  Mean (pg VEGF-A per mL): 159.7 pg VEGF-A per mL
  Mean (pg VEGF-A per μg protein): 2.540 pg VEGF-A per μg protein
  % Control: 134.4%
  Mean Result (pg VEGF-A per mL): 37.2 pg VEGF-A per mL and 28.54 pg VEGF-A per mL and 30.06 pg VEGF-A per mL
  pg VEGF-A per μg protein: 3 pg VEGF-A per μg protein and 2.1 pg VEGF-A per μg protein and 2.4 pg VEGF-A per μg protein
  Adj. Result (pg VEGF-A per mL): 186.02 pg VEGF-A per mL and 142.71 pg VEGF-A per mL and 150.31 pg VEGF-A per mL
  Result (pg VEGF-A per mL): 30.38 pg VEGF-A per mL and 36.84 pg VEGF-A per mL and 37.57 pg VEGF-A per mL and 29.44 pg VEGF-A per mL and 27.64 pg VEGF-A per mL and 29.74 pg VEGF-A per mL
[2]; 0.1 μg/well, 24 Hr
  % Negative Control: 93.6%
  pg VEGF-A per mL: 27.9 pg VEGF-A per mL and 28 pg VEGF-A per mL and 30.4 pg VEGF-A per mL
  Mean (pg VEGF-A per mL): 287.4 pg VEGF-A per mL
  Mean (pg VEGF-A per μg protein): 4.152 pg VEGF-A per μg protein
  % Control: 94.1%
  Mean Result (pg VEGF-A per mL): 55.73 pg VEGF-A per mL and 56.02 pg VEGF-A per mL and 60.72 pg VEGF-A per mL
  pg VEGF-A per μg protein: 3.8 pg VEGF-A per μg protein and 4.0 pg VEGF-A per μg protein and 4.7 pg VEGF-A per μg protein
  Adj. Result (pg VEGF-A per mL): 278.66 pg VEGF-A per mL and 280.09 pg VEGF-A per mL and 303.58 pg VEGF-A per mL
  Result (pg VEGF-A per mL): 58.86 pg VEGF-A per mL and 52.60 pg VEGF-A per mL and 59.52 pg VEGF-A per mL and 52.51 pg VEGF-A per mL and 64.54 pg VEGF-A per mL and 56.89 pg VEGF-A per mL
[2]; 0.1 μg/well, 48 Hr
  % Negative Control: 100%
  pg VEGF-A per mL: 94.7 pg VEGF-A per mL and 85.1 pg VEGF-A per mL and 110 pg VEGF-A per mL
  Mean (pg VEGF-A per mL): 966 pg VEGF-A per mL
  Mean (pg VEGF-A per μg protein): 14.067 pg VEGF-A per μg protein
  % Control: 107.4%
  Mean Result (pg VEGF-A per mL): 189.30 pg VEGF-A per mL and 170.27 pg VEGF-A per mL and 220.04 pg VEGF-A per mL
  pg VEGF-A per μg protein: 14.1 pg VEGF-A per μg protein and 13.1 pg VEGF-A per μg protein and 15.1 pg VEGF-A per μg protein
  Adj. Result (pg VEGF-A per mL): 946.50 pg VEGF-A per mL and 851.33 pg VEGF-A per mL and 1100.22 pg VEGF-A per mL
  Result (pg VEGF-A per mL): 195.75 pg VEGF-A per mL and 182.85 pg VEGF-A per mL and 173.80 pg VEGF-A per mL and 166.73 pg VEGF-A per mL and 220.87 pg VEGF-A per mL and 219.22 pg VEGF-A per mL
[2]; 1 μg/well, 12 Hr
  % Negative Control: 110.5%
  pg VEGF-A per mL: 12.9 pg VEGF-A per mL and 13.7 pg VEGF-A per mL and 16.1 pg VEGF-A per mL
  Mean (pg VEGF-A per mL): 142.5 pg VEGF-A per mL
  Mean (pg VEGF-A per μg protein): 2.273 pg VEGF-A per μg protein
  % Control: 120.3%
